Where “and” joins values, the source holds several entries; their conditions need not be identical. Equal values may be shown once. Read-outs that look alike come from different tables or passages of the source. Non-standard residues stand in square brackets, D forms with d. Residues, ends and D or L forms follow the SMILES beside them. *: point of attachment. Phe(3,4,5-F3) = N[C@@H](Cc1cc(F)c(F)c(F)c1)C(=O)O; Myristoyl = CCCCCCCCCCCCCC(=O)*; pGlu = O=C1CC[C@@H](C(=O)O)N1; Nle = CCCC[C@H](N)C(=O)O; Abu = CC[C@H](N)C(=O)O; Aib = CC(C)(N)C(=O)O
How the values were obtained:
Parameters in all cases: host or cells: CHO-K1
human apelin receptor [1] = target: T1, human apelin receptor (Homo sapiens, UniProt P35414); assay: DRx cAMP assay (cAMP Hunter eXpress AGTRL1 CHO-K1), forskolin-induced cAMP accumulation; type: cell-based; conditions: DRx cAMP pA2, antagonism of [Pyr1]apelin-13 inhibition of forskolin-stimulated cAMP
T1 sequence (P35414 1-380): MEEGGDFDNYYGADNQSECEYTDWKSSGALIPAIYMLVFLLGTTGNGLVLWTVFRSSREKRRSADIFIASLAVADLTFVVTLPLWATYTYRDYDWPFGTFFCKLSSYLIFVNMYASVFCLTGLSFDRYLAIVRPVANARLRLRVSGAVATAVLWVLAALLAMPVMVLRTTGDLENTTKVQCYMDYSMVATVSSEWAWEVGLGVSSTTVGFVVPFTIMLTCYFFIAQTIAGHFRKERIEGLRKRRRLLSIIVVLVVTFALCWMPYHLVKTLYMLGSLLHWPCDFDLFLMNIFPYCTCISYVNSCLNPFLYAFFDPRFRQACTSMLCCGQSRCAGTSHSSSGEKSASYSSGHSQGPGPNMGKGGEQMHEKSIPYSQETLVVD
Description: Antagonist activity at the apelin receptor was measured in two assays.
(§1) cAMP (cAMP Hunter™ eXpress AGTRL1 CHO-K1 GPCR Assay, DiscoverX Corporation, Ltd. Birmingham, UK) and β-arrestin (PathHunter® eXpress AGTRL1 CHO-K1 β-Arrestin GPCR Assay, DiscoverX Corporation, Ltd. Birmingham, UK) assays were performed according to the manufacturer's instructions. The cAMP assay measures the canonical signalling pathway through the G-protein. The β-arrestin assay measures the alternative signalling pathway and receptor internalisation.
Cells were then incubated with a mixture of Lysis Buffer, cAMP Buffer D and Detection Reagents for 1 hour at room temperature, followed by a 3 hour incubation with cAMP Reagent A at room temperature. Chemiluminescence was read using the LumiLITE™ Microplate Reader (DiscoverX). Concentration-response data for agonists, measured in relative light units (RLU), were analysed using a 4 parameter logistic equation in GraphPad Prism 6 (La Jolla, CA, USA) to determine values of potency expressed as the pD2 value (negative logo of the EC50 (where EC50 is the concentration producing half maximal response)), and maximum response (EMAX). Mean data from replicate experiments were normalised as percentage inhibition of forskolin-stimulated cAMP production.

human apelin receptor [2] = target: T1, human apelin receptor; assay: DRx β-arrestin assay (PathHunter eXpress AGTRL1 CHO-K1); type: cell-based; conditions: for Kb: DRx β-Arrestin pA2; for DRx β-Arrestin pA2: cho-k1 cells, 90 min
Description: as §1
For recruitment of β-arrestin, CHO-K1 cells artificially expressing the human apelin receptor were seeded in Cell Plating medium into 96-well plates and incubated for 48 hours at 37° C. in 5% CO2. Concentration response curves were constructed to test peptides (1 pmol/L-30 μmol/L) which were diluted in Cell Plating medium and added to the cells for 90 minutes at 37° C. If no response was obtained then test peptides were investigated as antagonists. […] Detection reagents were then added for a 2-hour incubation at room temperature. […] If no agonist response was obtained, test compounds were investigated for antagonist activity by repeating [Pyr]apelin-13 concentration response curves in the absence and presence of a single concentration (1-30 μmol/L of test peptide). Data were analysed as described for the cAMP assay using the Gaddum/Schild EC50 function in GraphPad Prism 6 to determine values of pA2.

human apelin receptor [3] = target: T1, human apelin receptor; assay: Cerep radioligand binding assay on CHO-K1 cells expressing the human apelin receptor
Description: Binding assays were performed by Cerep (Celle L'Evescault, France) on Chinese Hamster Ovary (CHO-K1) cells expressing the human apelin receptor. […] The results were expressed as a percent of control specific binding ((measured specific binding/control specific binding)×100) and as a percent inhibition of control specific binding (100−((measured specific binding/control specific binding)×100)) obtained in the presence of the test compounds. […] The inhibition constants (Ki) were calculated using the Cheng Prusoff equation (Ki=IC50/(1+(L/KD)), where L=concentration of radioligand in the assay, and KD=equilibrium dissociation constant of the radioligand for the receptor).

[4] = [Glp65,Nle75,Tyr77][125I]apelin-13, read-out: Ki (binding affinity at the apelin receptor, Cerep)

| Structure (SMILES) | Kb (human apelin receptor [1]) | Kb (human apelin receptor [2]) | DRx β-Arrestin pA2 (human apelin receptor [2]) | Ki (human apelin receptor [3]; Ki (binding affinity at the apelin receptor, Cerep), [Glp65,Nle75,Tyr77][125I]apelin-13) | Ki (human apelin receptor [3]; [4]) |
| --- | --- | --- | --- | --- | --- |
| CC(C)C[C@H](NC(=O)[C@H](CCCNC(=N)N)NC(=O)[C@@H]1CCCN1C(=O)[C@H](CCCNC(=N)N)NC(=O)[C@H](CS)NC(=O)[C@H](CCCCN)NC(=O)[C@H](Cc1c[nH]cn1)NC(=O)[C@H](CS)NC(=O)[C@H](CC(C)C)NC(=O)[C@H](CCCNC(=N)N)NC(=O)[C@@H]1CCCN1C(=O)[C@H](CCCNC(=N)N)NC(=O)[C@@H](N)CS)C(=O)N[C@@H](CS)C(=O)O [MM107] (H-CRPRLCHKCRPRLC-OH; N-terminus and C-terminus assumed) | 4680 nM and 575 nM | 57.5 nM | pA2 = 7.24 |  |  |
| CC(C)C[C@H](NC(=O)[C@H](CCCNC(=N)N)NC(=O)[C@@H]1CCCN1C(=O)[C@H](CCCNC(=N)N)NC(=O)[C@H](CS)NC(=O)[C@H](Cc1c[nH]cn1)NC(=O)[C@H](CCCCN)NC(=O)[C@H](CS)NC(=O)[C@H](CC(C)C)NC(=O)[C@H](CCCNC(=N)N)NC(=O)[C@@H]1CCCN1C(=O)[C@H](CCCNC(=N)N)NC(=O)[C@@H](N)CS)C(=O)N[C@@H](CS)C(=O)O [MM108] (H-CRPRLCKHCRPRLC-OH) | 107 nM and 191 nM | 38.9 nM | pA2 = 7.41 | 140 nM |  |
| CCCC[C@H](NC(=O)[C@H](CCCNC(=N)N)NC(=O)C(C)(C)NC(=O)[C@H](CCCNC(=N)N)NC(=O)[C@H](CS)NC(=O)[C@H](Cc1c[nH]cn1)NC(=O)[C@H](CCCCN)NC(=O)[C@H](CS)NC(=O)[C@H](CCCC)NC(=O)[C@H](CCCNC(=N)N)NC(=O)[C@@H]1CCCN1C(=O)[C@H](CCCNC(=N)N)NC(=O)[C@@H](N)CCC(N)=O)C(=O)N[C@@H](Cc1cc(F)c(F)c(F)c1)C(=O)O [MM262, QRPR-Nle-CKHCR-Aib-R-Nle-(3,4,5-trifluorophenylalanine)] (H-QRPR[Nle]CKHCR[Aib]R[Nle][Phe(3,4,5-F3)]-OH) | 447 nM and 135 nM | 29.5 nM | pA2 = 7.53 |  | 34 nM |
| CCCC[C@H](NC(=O)[C@H](CCCNC(=N)N)NC(=O)C(C)(C)NC(=O)[C@H](CCCNC(=N)N)NC(=O)[C@H](CS)NC(=O)[C@H](Cc1c[nH]cn1)NC(=O)[C@H](CCCCN)NC(=O)[C@H](CS)NC(=O)[C@H](CCCC)NC(=O)[C@H](CCCNC(=N)N)NC(=O)[C@@H]1CCCN1C(=O)[C@H](CCCNC(=N)N)NC(=O)[C@@H]1CCC(=O)N1)C(=O)N[C@@H](Cc1cc(F)c(F)c(F)c1)C(=O)O [MM297, pyr-RPR-Nle-CKHCR-Aib-R-Nle-(3,4,5-trifluorophenylalanine)] ([pGlu]RPR[Nle]CKHCR[Aib]R[Nle][Phe(3,4,5-F3)]-OH) | 832 nM and 724 nM | 41.7 nM | pA2 = 7.38 |  | 55 nM |
| CCCC[C@H](NC(=O)[C@H](CCCNC(=N)N)NC(=O)C(C)(C)NC(=O)[C@H](CCCNC(=N)N)NC(=O)[C@H](CS)NC(=O)[C@H](Cc1c[nH]cn1)NC(=O)[C@H](CCCCN)NC(=O)[C@H](CC)NC(=O)[C@H](CCCC)NC(=O)[C@H](CCCNC(=N)N)NC(=O)[C@@H]1CCCN1C(=O)[C@H](CCCNC(=N)N)NC(=O)[C@@H](N)CS)C(=O)N[C@@H](Cc1cc(F)c(F)c(F)c1)C(=O)O [MM298, CRPR-Nle-Abu-KHCR-Aib-R-Nle-(3,4,5-trifluorophenylalanine)] (H-CRPR[Nle][Abu]KHCR[Aib]R[Nle][Phe(3,4,5-F3)]-OH) | 25.7 nM and 75.9 nM | 17.4 nM | pA2 = 7.76 |  | 16 nM |
| CCCC[C@H](NC(=O)[C@H](CCCNC(=N)N)NC(=O)C(C)(C)NC(=O)[C@H](CCCNC(=N)N)NC(=O)[C@H](CC)NC(=O)[C@H](Cc1c[nH]cn1)NC(=O)[C@H](CCCCN)NC(=O)[C@H](CS)NC(=O)[C@H](CCCC)NC(=O)[C@H](CCCNC(=N)N)NC(=O)[C@@H]1CCCN1C(=O)[C@H](CCCNC(=N)N)NC(=O)[C@H](C)N)C(=O)N[C@@H](Cc1cc(F)c(F)c(F)c1)C(=O)O [MM312, ARPR-Nle-CKH-Abu-R-Aib-R-Nle-(3,4,5-trifluorophenylalanine)] (H-ARPR[Nle]CKH[Abu]R[Aib]R[Nle][Phe(3,4,5-F3)]-OH) | 251 nM and 145 nM |  |  |  | 190 nM and 160 nM |
| CCCC[C@H](NC(=O)[C@H](CCCNC(=N)N)NC(=O)C(C)(C)NC(=O)[C@H](CCCNC(=N)N)NC(=O)[C@H](CC)NC(=O)[C@H](Cc1c[nH]cn1)NC(=O)[C@H](CCCCN)NC(=O)[C@H](CS)NC(=O)[C@H](CCCC)NC(=O)[C@H](CCCNC(=N)N)NC(=O)[C@@H]1CCCN1C(=O)[C@H](CCCNC(=N)N)NC(=O)[C@H](C)NC(C)=O)C(=O)N[C@@H](Cc1cc(F)c(F)c(F)c1)C(=O)O [MM313, Ac-ARPR-Nle-CKH-Abu-R-Aib-R-Nle-(3,4,5-trifluorophenylalanine)] (Ac-ARPR[Nle]CKH[Abu]R[Aib]R[Nle][Phe(3,4,5-F3)]-OH) | 219 nM and 120 nM |  |  |  | 53 nM and 47 nM |
| CCCC[C@H](NC(=O)[C@H](CCCNC(=N)N)NC(=O)C(C)(C)NC(=O)[C@H](CCCNC(=N)N)NC(=O)[C@H](CC)NC(=O)[C@H](Cc1c[nH]cn1)NC(=O)[C@H](CCCCN)NC(=O)[C@H](CC)NC(=O)[C@H](CCCC)NC(=O)[C@H](CCCNC(=N)N)NC(=O)[C@@H]1CCCN1C(=O)[C@H](CCCNC(=N)N)NC(=O)[C@H](C)N)C(=O)N[C@@H](Cc1cc(F)c(F)c(F)c1)C(=O)O [MM314, ARPR-Nle-Abu-KH-Abu-R-Aib-R-Nle-(3,4,5-trifluorophenylalanine)] (H-ARPR[Nle][Abu]KH[Abu]R[Aib]R[Nle][Phe(3,4,5-F3)]-OH) | 372 nM and 195 nM |  |  |  | 10 nM and 8.9 nM |
| CCCCCCCCCCCCCC(=O)N[C@@H](C)C(=O)N[C@@H](CCCNC(=N)N)C(=O)N1CCC[C@H]1C(=O)N[C@@H](CCCNC(=N)N)C(=O)N[C@@H](CCCC)C(=O)N[C@@H](CC)C(=O)N[C@@H](CCCCN)C(=O)N[C@@H](Cc1c[nH]cn1)C(=O)N[C@@H](CC)C(=O)N[C@@H](CCCNC(=N)N)C(=O)NC(C)(C)C(=O)N[C@@H](CCCNC(=N)N)C(=O)N[C@@H](CCCC)C(=O)N[C@@H](Cc1cc(F)c(F)c(F)c1)C(=O)O [MM315, Myristoyl-ARPR-Nle-Abu-KH-Abu-R-Aib-R-Nle-(3,4,5-trifluorophenylalanine)] (Myristoyl-ARPR[Nle][Abu]KH[Abu]R[Aib]R[Nle][Phe(3,4,5-F3)]-OH) | 7.76 nM and 3.02 nM |  |  |  | 2.7 nM and 3 nM |
| CCCCCCCCCCCCCC(=O)N[C@@H](C)C(=O)N[C@@H](CCCNC(=N)N)C(=O)N1CCC[C@H]1C(=O)N[C@@H](CCCNC(=N)N)C(=O)N[C@@H](CCCC)C(=O)N[C@@H](CC)C(=O)N[C@@H](Cc1c[nH]cn1)C(=O)N[C@@H](CCCCN)C(=O)N[C@@H](CC)C(=O)N[C@@H](CCCNC(=N)N)C(=O)NC(C)(C)C(=O)N[C@@H](CCCNC(=N)N)C(=O)N[C@@H](CCCC)C(=O)N[C@@H](Cc1cc(F)c(F)c(F)c1)C(=O)O [MM316, Myristoyl-ARPR-Nle-Abu-HK-Abu-R-Aib-R-Nle-(3,4,5-trifluorophenylalanine)] (Myristoyl-ARPR[Nle][Abu]HK[Abu]R[Aib]R[Nle][Phe(3,4,5-F3)]-OH) | 13.2 nM and 38.9 nM |  |  |  | 2.8 nM and 3 nM |
